Experimental data: patent publication US4149007A, “C14 Phenyl-substituted derivatives of prostaglandin analogues” (Miles Laboratories, Inc., priority 1977, dated 1979)
Entries after “also recorded” stand apart in the source; their conditions may differ.

Experiments:
rat uterus = experiment: Effects on the rat uterus in vitro; assay type: cell-based; settings: dose producing response 50% that of carbachol
Protocol: (B) effect on the rat uterus in vitro;
The uterine stimulant effect of test compounds was determined in segments of uterus obtained from rats (140-160 g) pretreated subcutaneously with 1 mg/kg of diethylstilbesterol 18 hours before the experiment. The tissues were placed in 10 ml chambers filled with de-Jalon solution at 29° C., were aerated and bubbled with 95% O2 and 5% CO2, and were prepared for isometric recording with force displacement transducers. Preparations were stretched to an initial tension of 1 g and were left undisturbed for 30 minutes. Carbachol (1 mcg/ml) was then added to the bath and a response was recorded. After a ten minute interval the carbachol procedure was repeated. Responses to increasing concentrations of a test compound (0.001 to 10 mcg/ml with one log intervals) were then recorded every 10 minutes. Preparations were washed four times after each response. All doses of compounds were administered in a 0.1 ml volume. Because it has been observed that the magnitude of the second response to carbachol (approximately 10% greater than the first) is close to the maximal response of the tissue, such value was taken as a measure of the sensitivity of a particular segment. Responses to each concentration of the test compound were expressed in terms of percentage of the second response to carbachol and the ED50 (dose producing a response 50% that of carbachol) was calculated graphically.
Activity was scored according to the following scale: […]

anesthetized cat = experiment: Effects on blood pressure and heart rate in the anesthetized cat; assay type: in vivo; settings: i.v. 0.01 to 10.0 mcg/kg, scored on hypotension only
Protocol: (G) effect on blood pressure and heart rate in the anesthetized cat;
The acute effects of test compounds on blood pressure and heart rate were determined in cats of either sex anesthetized with a mixture of pentobarbital sodium (35 mg/kg, i.v.) and barbital sodium (100 mg/kg, i.v.). Cannulas were placed in the trachea to allow adequate spontaneous ventilation, in a femoral artery for blood pressure recording with a strain gage transducer, and in a saphenous vein for drug administration. Heart rate was recorded by means of a cardiotachometer driven by the R wave of the electrocardiogram. After a period of 10 minutes of stable recordings of blood pressure and heart rate, the test compound was administered intravenously at doses increasing from 0.01 to 10.0 mcg/kg, spaced one log and injected at 10 minute intervals. All doses were injected in a volume of 0.1 ml/kg. Modifications of blood pressure and heart rate induced by the test compound were expressed both in absolute units (mmHg and beats/minute) and as percent of values recorded immediately before administration of each dose. […]
Activity of compounds in this test was judged only on the basis of the degree of hypotension observed. Thus, the ED50 mmHg (dose decreasing blood pressure by 50 mmHg) was calculated graphically, and the compound scored according to the following scale: […]

anesthetized dog = experiment: Effects on femoral blood flow in the anesthetized dog; assay type: in vivo; settings: intraarterial 0.001 to 10 mcg
Protocol: (H) effect on femoral blood flow in the anesthetized dog; and
The peripheral vasodilator or constrictor effects of test compounds were determined in mongrel dogs of either sex, weighing between 10 and 20 kg, anesthetized intravenously with 35 mg/kg of pentobarbital sodium. An external iliac artery was dissected immediately above the femoral arch for a length of approximately 5 cm, and a previously calibarated, non-cannulating electromagnetic-flowmeter sensor with a lumen between 2.5 and 3.5 mm was placed snugly around the vessel. Cannulas were placed in a branch of the artery arising distally to the location of the flowmeter sensor for intraarterial drug administrations, in the contralateral femoral artery for systemic blood pressure recording, and in the trachea for artificial respiration with room air. Femoral blood flow and systemic blood pressure were continuously recorded with an electromagnetic flowmeter and pressure transducer, respectively.
After an adequate control period, test compounds were injected intraarterially at one log-spaced doses ranging from 0.001 to 10 mcg, in a volume of 0.5 ml and at 5 to 10 minute intervals. […] The dose changing blood flow by 100 ml/min (ED100 ml/min) was calculated graphically and was used for scoring activity as follows: […]

hypertensive rat = experiment: Effects on blood pressure in the hypertensive rat; assay type: in vivo; set-up: key: 0: Not significant at any time interval; 1: Significant at one time interval; 2: Significant at two time intervals; settings: 1 mg/kg intraperitoneal; 2, 4, 6 and 9 hours
Protocol: (I) effect on systolic blood pressure in the hypertensive rat
The acute anithypertensive activity of test compounds was determined in rats made hypertensive by the procedure of Grollman (Proc. Soc. Exper Biol. Med., 57: 102 [1944]). Female rats weighing between 60 and 100 g were anesthetized with ether, the right kidney approached through a flank retroperitoneal incision, decapsulated and tied with a figure-of-eight-ligature. The animals were left to recover and two weeks later were again anesthetized and the contralateral kidney removed. […]
Blood pressure was measured in the tail with an inflatable occluding cuff placed at the base of the extremity and a pulse detector located distally. The cuff was inflated to approximately 300 mmHg and was slowly deflated until pulsations appeared, indicating the level of systolic pressure; diastolic pressure was not recorded by this procedure. […] In all cases, three pressure readings were obtained in succession and mean values were calculated thereof.
Experiments were carried out in groups of five hypertensive rats in which systolic pressure was determined immediately before and 2, 4, 6 and 9 hours after intraperiotoneal administration of the test compound at a dose of 1 mg/kg. Drugs were diluted from stock solutions with phosphate buffer (Lee et al., Prostaglandins, 3: 29 [1973]), so as to inject this quantity in a volume of 1 ml/kg. […]

guinea pig ileum [1] = experiment: Antagonism of the effects of PGE1 on the guinea pig ileum in vitro; assay type: cell-based; settings: listed as TR 4412
Protocol: (§1) The degree and specificity of antagonism of test compounds to the smooth muscle stimulant effects of prostaglandins were assessed in segments of terminal guinea pig ileum. Preparations were placed in tissue chambers filled with Ringer-Tyrode solution at 37° C., bubbled with a mixture of 95% O2 and 5% CO2, and arranged for isometric recording with force displacement transducers. The segments were stretched to an initial tension of 1 g, and responses to a test concentration of acetylcholine (0.1 mcg/ml) were obtained every 5 minutes until two similar responses were observed (usually after four administrations). […] Any direct contractile effect of the test compound was recorded and evaluated in terms of mean values in grams of tension developed at each concentration. Responses to the different agonists observed after incubation with the test compound were expressed as percent of control responses. All drugs were administered in a volume of 0.1 ml.
(§2) Antagonism to prostaglandins was scored independently for PGE1 and PGF2α according to the following criteria: […]

guinea pig ileum [2] = experiment: Antagonism of the effects of PGF2α on the guinea pig ileum in vitro; assay type: cell-based; settings: listed as TR 4412
Protocol: as §1, §2

guinea pig trachea = experiment: Effects on the guinea pig trachea in vitro; assay type: cell-based; settings: 0.01-10.0 mcg/ml, relative to PGE1 0.1 mcg/ml
Protocol: (C) effect on the guinea pig trachea in vitro;
A male guinea pig weighing 200-500 g was killed by a blow on the head. A 20 mm length of the trachea was dissected from the animal, transferred to a petri dish containing Krebs' solution (aerated with 95% O2 and 5% CO2 at 37° C.), and cut longitudinally opposite the tracheal muscle. The tissue was then cut transversely three quarters of the distance across, a second cut in the opposite direction (again three quarters of the distance across the tissue) was made and the procedure was continued for the whole tissue. The ends of the trachea were pulled to form a zig-zig shaped strip. The tracheal strip used in the experiment was approximately 30 mm when extended under 0.25-0.5 g load in the tissue bath. Cotton thread was tied to one end of the tissue, and linen thread to the other. It was attached via the linen thread to a glass hook in a 5 ml isolated tissue bath containing Krebs' solution (37° C., aerated with a mixture of 95% O2 and 5% CO2). […]
A test compound was then added to the same two strips at bath concentrations of 0.01, 0.1, 1.0, and 10.0 mcg/ml and the effects of the compound were recorded. […] The mean of the effects of the test compound on the two strips was then calculated for each concentration, and, based on the resulting values, an activity value was assigned as follows: […]

| Compound | Rat Uterus: activity value (ED50) (rat uterus) | Feline Blood Pressure, Heart Rate: activity value (ED50 mmHg) (anesthetized cat) | Femoral Blood Flow: activity value (ED100 ml/min) (anesthetized dog) | Blood Pressure Hypertensive Rat: activity value (hypertensive rat) | antagonism to the smooth muscle stimulant effects of PGE1 (in words) (guinea pig ileum [1]) | antagonism to the smooth muscle stimulant effects of PGF2α (in words) (guinea pig ileum [2]) | Guinea Pig Trachea: activity value (guinea pig trachea) |
| --- | --- | --- | --- | --- | --- | --- | --- |
| CCCCC[C@H](O)/C(=C/[C@H]1[C@H](O)CC(=O)[C@@H]1CCCCCCC(=O)OC)c1ccccc1 [Example 1, Methyl 14-Phenyl-11α,15S-dihydroxy-9-oxoprost-13E-en-1-oate] | 0 (>10) | 0 (>10.0) | 0 (>10.0) | 0 | exhibited antagonism to the smooth muscle stimulant effects of PGE1 and PGF2α; also recorded: demonstrated a specificity of antagonism to the smooth muscle stimulant effects of PGE1 and PGF2α | exhibited antagonism to the smooth muscle stimulant effects of PGE1 and PGF2α; also recorded: demonstrated a specificity of antagonism to the smooth muscle stimulant effects of PGE1 and PGF2α |  |
| CCCCC[C@@H](O)/C(=C/[C@H]1[C@H](O)CC(=O)[C@@H]1C/C=C\CCCC(=O)OCC)c1ccccc1 [Example 7A, Ethyl 14-Phenyl-11α,15R-dihydroxy-9-oxoprosta-5Z,13E-dien-1-oate] | 0 (>10) |  |  |  |  |  | 1 |
